Test results: paper PMC6930659, “Antiprotozoal Activity of Turkish Origanum onites Essential Oil and Its Components” (Molecules, 2019)
In brackets after ≈: the same amount, converted by molar mass. Entries after “also recorded” stand apart in the source; their conditions may differ. Where two headings read alike, the source gives them in different places.

Legend:
[1] = system: L. donovani (strain MHOM/ET/67/L82) amastigotes; experiment: In vitro assay for Leishmania donovani axenic amastigotes (resazurin); assay type: cell-based; settings: 72 h, read-out: IC50 Leishmania donovani
Method: Amastigotes of L. donovani (strain MHOM/ET/67/L82) were grown in axenic culture at 37 °C in SM medium at pH 5.4 supplemented with 10% heat-inactivated FBS under an atmosphere of 5% CO2. Culture medium (100 μL) with 10^5 amastigotes from axenic culture with or without a serial drug dilution was seeded in 96 well microtiter plates. Serial drug was prepared covering a range of dilutions from 90 to 0.123 μg/mL. After 72 h of incubation, the plates were inspected under an inverted microscope to assure growth of the controls and sterile conditions. Subsequently, 10 μL resazurin solution (12.5 mg resazurin dissolved in 100 mL double-distilled water) was added to each well and the plates were incubated for another 2 h. The plates were then read with a Spectramax Gemini XS microplate fluorometer (Molecular Devices Cooperation, Sunnyvale, CA, USA) using an excitation wavelength of 536 nm and an emission wavelength of 588 nm. Data were analyzed using the software Softmax Pro (Molecular Devices Cooperation, Sunnyvale, CA, USA). A decrease of fluorescence (=inhibition) was expressed as percentage of the fluorescence of control cultures and plotted against the drug concentrations. From the sigmoidal inhibition curves, the IC50 values were calculated. Miltefosine was used as a reference drug.

[2] = system: P. falciparium FCR-3 strain; set-up: method as in PMID 23082579; settings: cited from earlier work
[3] = system: Trypanosoma brucei rhodesiense STIB 900; experiment: In vitro assay for Trypanosoma brucei rhodesiense (resazurin); assay type: cell-based
Method: Trypanosoma brucei rhodesiense STIB 900 strain, isolated in 1982 from a human patient in Tanzania and, after several mouse passages, cloned and adapted to axenic culture conditions, was used in this assay. Minimum essential medium (50 μL) supplemented with 25 mM HEPES, 1 g/L additional glucose, 1% MEM non-essential amino acids (100×), 0.2 mM 2-mercaptoethanol, 1 mM Na-pyruvate, and 15% heat inactivated horse serum was added to each well of a 96 well microtiter plate. Serial drug dilutions of seven 3-fold dilution steps covering a range from 90 to 0.123 μg/mL were prepared, and then 4 × 10^4 blood stream forms of T. b. rhodesiense STIB 900 in 50 μL were added to each well and the plate was incubated at 37 °C under a 5% CO2 atmosphere for 72 h. Resazurin solution (resazurin, 12.5 mg in 100 mL double-distilled water) (10 μL) was then added to each well and incubated for a further 2–4 h. At the end of the assay, the plates were read with a Spectramax Gemini XS microplate fluorometer (Molecular Devices Cooperation, Sunnyvale, CA, USA) using an excitation wavelength of 536 nm and an emission wavelength of 588 nm. Data were analyzed using the microplate reader software Softmax Pro (Molecular Devices Cooperation, Sunnyvale, CA, USA). Melarsoprol was used as standard drug.

[4] = system: L. infantum promastigotes; set-up: method as in PMID 31151304; settings: 24 h MTT assay; cited from earlier work
T. brucei brucei STIB795 = experiment: In vivo trypanocidal activity, T. brucei brucei STIB795 mouse model; set-up: species or system Trypanosoma brucei brucei; settings: for in vivo trypanocidal activity in mice (in words): 100 mg/kg i.p.; for Cured/Infected / Mean Survival: 100 mg/kg × 4 days i.p., NMRI mice; for Mean Survival: untreated control 5.25 days
Method: In vivo efficacy studies in mice were conducted at the Swiss Tropical and Public Health Institute (Basel) (License number 2813) according to the rules and regulations for the protection of animal rights (“Tierschutzverordnung”) of the Swiss “Bundesamt für Veterinärwesen”. They were approved by the veterinary office of Canton Basel-Stadt, Switzerland. Groups of four female NMRI mice weighing 20 to 25 g were infected i.p. on Day 0 (d0) with 10^5 bloodstream forms of T. brucei brucei STIB 795, which is a derivative of strain 427. Compounds were formulated in 100% DMSO diluted 10-fold in distilled water. Mice were treated on four consecutive days (d3 to d6 post-infection) with the Origanum onites oil, as well as carvacrol and thymol, at 100 mg/kg by the i.p. route. One group served as untreated controls, and two other groups were treated with the standard drugs pentamidine (5 mg/kg for 4 days) and melarsoprol (2 mg/kg for 4 days), respectively. The levels of parasitemia of the mice were checked by microscopic examination of tail blood on Day 7 and thereafter twice a week until Day 30 post infection. Mice were considered cured when there was no parasitaemia relapse detected in the tail blood over the 30 day observation period. The day of relapse and surviving days were recorded.

[5] = system: promastigote forms of L. chagasi; set-up: method as in PMID 23558998, PMID 23850505; settings: cited from earlier work
T. brucei brucei = system: T. brucei brucei; set-up: method as in PMID 20359874; settings: life stage or form has not been reported; cited from earlier work
[6] = system: T. cruzi Tulahuen strain C2C4; experiment: In vitro assay for Trypanosoma cruzi in L-6 cells (β-galactosidase/CPRG); assay type: cell-based; settings: highest concentration tested 90 μg/mL; for IC50: Trypanosoma cruzi, L6, Tulahuen C2C4 in L-6 cells, 96 h, means of two determinations ± deviation
Method: Rat skeletal myoblasts (L-6 cells) were seeded in 96 well microtiter plates (2000 cells/well) in 100 μL RPMI 1640 medium with 10% FBS and 2 mM L-glutamine for 24 h. After that, the medium was removed and replaced by 100 μL per well containing 5000 trypomastigote forms of T. cruzi Tulahuen strain C2C4, containing the β-galactosidase (Lac Z) gene. The medium was removed from the wells after 48 h, and replaced with 100 μL fresh medium with or without a serial drug dilution of seven 3-fold dilution steps covering a range from 90 to 0.123 μg/mL. After 96 h of incubation, the plates were inspected under an inverted microscope to assure growth of the controls and sterility, after which the substrate CPRG/Nonidet ([…]) was added to all wells. A color reaction developed within 2–6 h and could be read photometrically at 540 nm. Data were transferred into the graphic program Softmax Pro (Molecular Devices Cooperation, Sunnyvale, CA, USA) and the IC50 values were calculated from the sigmoidal dose response curves. Benznidazole was the reference drug.

SMILES	IC50 [1]	IC50 in vitro antimalarial activity [2]	IC50 ([3]; Trypanosoma brucei; STIB 900 blood stream forms, 72 h; means of two independent determinations ± deviation from the mean; read-out: IC50 Trypanosoma brucei rhodesiense)	selectivity index (IC50 value against L6 mammalian cells/IC50 value against parasite) ([3]; against T. b. rhodesiense)	IC50 L. infantum promastigotes [4]	in vivo trypanocidal activity in mice (in words) (T. brucei brucei STIB795)	Cured/Infected (T. brucei brucei STIB795)	Mean Survival (T. brucei brucei STIB795)	IC50 promastigote forms of L. chagasi [5]	IC50 T. brucei brucei (T. brucei brucei)	IC50 [6]	inhibitory activity against T. cruzi (in words) [6]	IC50 ([1]; axenic amastigotes, means of two determinations ± deviation)	IC50 ([3]; Trypanosoma brucei, 72 h, STIB 900 blood stream forms, 72 h; means of two independent determinations ± deviation from the mean; read-out: IC50 Trypanosoma brucei rhodesiense)	Mean Survival (T. brucei brucei STIB795; listed as thymol)
Cc1ccc(C(C)C)cc1O [Carvacrol]	13.1 ± 3.9 mg/L (≈ 87.2 µM)	10 mg/L (≈ 66.6 µM)	0.15 ± 0.04 mg/L (≈ 0.999 µM)	327.5	9.8 mg/L (≈ 65.2 µM)	inactive	0/4	5.25 days	2.3 mg/L	11.3 mg/L (≈ 75.2 µM)	> 90 mg/L	inactive			
Cc1ccc(C(C)C)c(O)c1 [Thymol]		10 mg/L (≈ 66.6 µM)			7.2 mg/L (≈ 47.9 µM)	extended the survival time of infected mice; also recorded: had some effect	0/4	9.0 days	9.8 mg/L	22.9 mg/L (≈ 152 µM)	> 90 mg/L	inactive	17.3 ± 4.1 mg/L (≈ 115 µM)	0.11 ± 0.01 mg/L (≈ 0.732 µM)	9 days
